19 compounds from patent US20250313555A1, “2-SUBSTITUTED THIAZOLE AND BENZOTHIAZOLE COMPOSITIONS AND METHODS AS DUX4 INHIBITORS” (ALTAY THERAPEUTICS, INC., priority 2022, published 2025) can be followed below.

What all share (assay type): cell-based
A short description of series [1]: Cell cytotoxicity 50 assay (CC50), MB200 cells, cell titer glo. Conditions: human. Summed up: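 MB200 cells were seeded at 10 k/well in F10 medium with bFGF, 15% FBS and dexamethasone. Cells were exposed to serially diluted compound (from 10 mM stock) in triplicate for 72 h at 37 °C. Viability was read by CellTiter-Glo luminescence and CC50 was fitted.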
The subject of series [2] is MBD3L2 RNA. Kind of series: RNA isolation and qPCR to determine MBD3L2 RNA levels in FSHD cells. The following applies: 48 hrs. Summed up: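 FSHD cells were treated one day after seeding with a DUX4 inhibitor (11 μM or 3.6 μM) for 48 h. Total RNA was DNase-treated and reverse-transcribed with random hexamers and M-MLV. MBD3L2 was quantified by SYBR Green qPCR in triplicate against EEF1A as the reference gene.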

A short description of series [3]: Cell cytotoxicity 50 assay (CC50), HEK cells. Conditions: human. A digest of the protocol:
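Starting from a 10 mM drug solution, serial dilutions were made in medium and added onto HEK cells, which were then incubated 72 h at 37 °C. Viability was read as CellTiter-Glo luminescence after 5 min, and CC50 was obtained by curve fitting.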

As to `CC(=O)NCCCNC(=O)c1cc(C#N)cc(-c2nc3cc(F)ccc3s2)c1` [Compound 188], the CC50 at 72 h in series [1] and in series [3] was above 10 µM throughout. The “qPCR MBD3L2 Inhib at 11 µM” value in series [2] was “YES”.

For the compound `CC(=O)NCCCC(=O)Nc1cc(Cl)cc(-c2nc3ccccc3s2)c1` [Compound 101], the cytotoxic concentration (CC50) at 72 h in series [1] and in series [3] was above 10 µM each time. In addition, the “qPCR MBD3L2 Inhib at 11 µM” value in series [2] is “YES”.

On to `CC(=O)N[C@@H]1CC[C@@H](C(=O)Nc2nc3ccccc3s2)C1` [Compound 185], for which the CC50 at 72 h in series [1] and in series [3] was above 10 µM throughout. The “qPCR MBD3L2 Inhib at 11 µM” value in series [2] is reported as “YES”.

Take `CC(=O)NCCCC(=O)Nc1nc(-c2ccccc2)cs1` [Compound 126]: the cytotoxic concentration (CC50) at 72 h in series [1] and in series [3] was above 10 µM each time. Further, in series [2], the “qPCR MBD3L2 Inhib at 11 µM” value is recorded as “YES”.

Consider `CC(=O)NCCCC(=O)N[C@H]1CC[C@H](c2nc3ccccc3s2)C1` [Compound 115], for which the CC50 at 72 h in series [1] and in series [3] was above 10 µM each time. For the same compound, the “qPCR MBD3L2 Inhib at 11 µM” value in series [2] is on record as “YES”.

On to `CC(=O)NCCCNC(=O)C12CCC(c3nc4ccccc4s3)(CC1)CC2` [Compound 173], for which the CC50 at 72 h in series [1] and in series [3] was above 10 µM in each case. In addition, the “qPCR MBD3L2 Inhib at 11 µM” value in series [2] was “YES”.

As for `O=C(CCCN1C(=O)CCC1=O)Nc1nc2ccccc2s1` [Compound 108], the “qPCR MBD3L2 Inhib at 11 µM” value in series [2] was “YES”.

With `O=C(CCCN1C(=O)CCC1=O)NC1CCC(c2nc3ccccc3s2)C1` (centres unmarked) [Compound 90], the CC50 at 72 h in series [1] and in series [3] was above 10 µM in each case. Also, in series [2], the “qPCR MBD3L2 Inhib at 11 µM” value is “YES”.

Consider `CC(=O)NCCCC(=O)Nc1nc2ccccc2s1` [Compound 107], for which the CC50 at 72 h in series [1] and in series [3] was above 10 µM throughout. In addition, in series [2], the “qPCR MBD3L2 Inhib at 11 µM” value is recorded as “YES”.

As for `O=C(CCCCN1C(=O)CCC1=O)N[C@H]1CC[C@@H](c2nc3ccccc3s2)CC1` [Compound 151], the 50% cytotoxic concentration (CC50) at 72 h in series [1] and in series [3] was above 10 µM each time. Besides, the “qPCR MBD3L2 Inhib at 11 µM” value in series [2] is on record as “YES”.

On to `CC(=O)NCCCC(=O)NCCCc1nc2ccccc2s1` [Compound 106], for which the half-maximal cytotoxic concentration (CC50) at 72 h in series [1] and in series [3] was above 10 µM in each case. In addition, the “qPCR MBD3L2 Inhib at 11 µM” value in series [2] is reported as “YES”.

In the case of `O=C(CCCN1C(=O)CCC1=O)NCCCc1nc2ccccc2s1` [Compound 91], the half-maximal cytotoxic concentration (CC50) at 72 h in series [1] and in series [3] was above 10 µM each time. Moreover, in series [2], the “qPCR MBD3L2 Inhib at 11 µM” value is given as “YES”.

`O=C(CCN1CCCC1=O)Nc1ccc(Cc2nc3ccccc3s2)cc1` [Compound 8]: the CC50 at 72 h in series [1] and in series [3] was above 10 µM each time. Besides, the “qPCR MBD3L2 Inhib at 11 µM” value in series [2] is “YES”.

Take `CC(C)(NC(=O)CCCN1CCCC1=O)c1ccc(-c2nc3ccccc3s2)cc1` [Compound 110]: the CC50 at 72 h in series [1] and in series [3] was above 10 µM in each case. Also, the “qPCR MBD3L2 Inhib at 11 µM” value in series [2] is given as “YES”.

As for `O=C(CCCN1C(=O)CCC1=O)N[C@@H]1CC[C@@H](c2nc3ccccc3s2)C1` [Compound 162], the CC50 at 72 h in series [1] and in series [3] was above 10 µM throughout. The “qPCR MBD3L2 Inhib at 11 µM” value in series [2] is “YES”.

For the compound `O=C(CCCN1C(=O)CCC1=O)NC1CCCC1c1nc2ccccc2s1` (centres unmarked) [Compound 92], the 50% cytotoxic concentration (CC50) at 72 h in series [1] and in series [3] was above 10 µM in each case. The “qPCR MBD3L2 Inhib at 11 µM” value in series [2] is on record as “YES”.

Regarding `O=C(Cc1ccc(-c2nc3ccccc3s2)cc1)NCCN1CCCC1=O` [Compound 119], the CC50 at 72 h in series [1] and in series [3] was above 10 µM in each case. In series [2], the “qPCR MBD3L2 Inhib at 11 µM” value was “YES”.

With `O=C(CCCN1C(=O)CCC1=O)N[C@H]1C[C@@H](c2nc3ccccc3s2)C1` [Compound 97], the 50% cytotoxic concentration (CC50) at 72 h in series [1] and in series [3] was above 10 µM throughout. In addition, the “qPCR MBD3L2 Inhib at 11 µM” value in series [2] is reported as “YES”.

For the compound `O=C(CCCN1C(=O)CCC1=O)N[C@H]1CC[C@H](c2nc3ccccc3s2)C1` [Compound 161], the “qPCR MBD3L2 Inhib at 11 µM” value in series [2] was “YES”.
